Measurements from publication PMC12189828, “Substitution of Proline Residues by 4-Fluoro-L-Proline Affects the Mechanism of the Proline-Rich Antimicrobial Peptide Api137” (Antibiotics, 2025).
“And” between values parts separate entries of the source, which are not always exact repeats. Identical values can stand only once. Where a SMILES comes first, the peptide text is derived from it. The star is where a group is joined. Orn(α-tetramethylguanidino) = CN(C)C(=N[C@@H](CCCN)C(=O)*)N(C)C

Legend:
E. coli RN31 = experiment: Growth inhibition of E. coli RN31 during 90 min exponential growth phase; type: cell-based, Escherichia coli; details: E. coli RN31, 33% TSB, peptide 8 µg/mL, 90 min, OD600; two biological replicates (n = 2)
[1] = system: in vitro expression of sfGFP in the presence of RF1; experiment: In vitro transcription-translation (iTT) assay of sfGFP in the presence of RF1; type: biochemical; details: peptide 5 µmol/L, RF1, 37 °C, 2 h, fluorescence; normalized to absence of PrAMPs; n = 3
Summary of the method: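 Cell-free PURExpress ΔRF123 system was supplemented with 50-fold-diluted RF1 and a sfGFP template ending in a UAG stop codon (35 ng, 0.1325 pmol). PrAMP was added from a 50 or 0 µmol/L aqueous solution. Reactions ran at 37 °C for 2 h, with fluorescence (ex 485/em 535 nm) read every 10 min.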

eukaryotic cell lines = details: cited from earlier work
[2] = system: 50S subunit assembly / 70S ribosome in E. coli RN31; experiment: Ribosome profile analysis (RPA), sucrose gradient of E. coli RN31 lysate; type: cell-based, Escherichia coli; details: 90 min

Q: Which “reduction of bacterial growth vs untreated control” value (E. coli RN31) does the source give for `CC[C@H](C)[C@H](NC(=O)[C@H](Cc1ccc(O)cc1)NC(=O)[C@@H](NC(=O)[C@@H]1CCCN1C(=O)[C@H](CCCNC(=N)N)NC(=O)[C@H](CC(N)=O)NC(=O)[C@H](CC(N)=O)NC(=O)[C@H](CCCN)N=C(N(C)C)N(C)C)C(C)C)C(=O)N1CCC[C@H]1C(=O)N[C@@H](CCCNC(=N)N)C(=O)N1CCC[C@H]1C(=O)N[C@@H](CCCNC(=N)N)C(=O)N1CCC[C@H]1C(=O)N1CCC[C@H]1C(=O)N[C@@H](Cc1c[nH]cn1)C(=O)N1CCC[C@H]1C(=O)N[C@@H](CCCNC(=N)N)C(=O)N[C@@H](CC(C)C)C(=O)O` [Api137] ({Orn(α-tetramethylguanidino)}-NNRPVYIPRPRPPHPRL-OH; N-terminus and C-terminus assumed) here?
A: Its value is 70%.

Q: What about the “Residual iTT (sfGFP expression relative to no PrAMP)” value [1] of the same compound?
A: The value was 22% and 22 ± 6.2%.

Q: And the “cytotoxicity to eukaryotic cell lines” value (eukaryotic cell lines)?
A: Its value is “virtually non-toxic”.

Q: And the “RPA [pre-50S formation]” value ([2]; E. coli RN31, 33% TSB, peptide 8 µg/mL, 5–25% sucrose gradient, n = 2 (Api137 n = 7))?
A: Its value is “yes”.

Q: And the “70S peak (area) relative to untreated control” value ([2]; E. coli RN31, peptide 8 µg/mL, sucrose gradient profile)?
A: The value was ~ 50%.
